Laboratory results taken from ChEMBL document CHEMBL1201862, “PubChem BioAssay data set” (2004).
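Results reflect a 48-hour exposure of cells in 96-well plates to compound at five concentrations. The concentration for 50% growth inhibition is given as GI50.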 Calls of active or inactive are those of the source. Cut-off read from the data, not from the text of the source: active = GI50 up to about 1.1 µM and inactive = higher.

Columns and labels:
Experiment in all cases: NCI-60 cell line screen, 48 h
RPMI-8226 = system: RPMI-8226
KM-20L2 = system: KM-20L2
SF-539 = system: SF-539
CCRF-CEM = system: CCRF-CEM
CAKI-1 = system: CAKI-1
LXFL 529 = system: LXFL 529
M14 = system: M14
ACHN = system: ACHN
EKVX = system: EKVX
MOLT-4 = system: MOLT-4
A498 = system: A498
HOP-18 = system: HOP-18
TK-10 = system: TK-10
NCI-H460 = system: NCI-H460
A549 = system: A549
KM12 = system: KM12
IGROV-1 = system: IGROV-1
OVCAR-8 = system: OVCAR-8
U-251 = system: U-251
SW-620 = system: SW-620
NCI-H226 = system: NCI-H226
COLO 205 = system: COLO 205
SK-MEL-5 = system: SK-MEL-5
SF-295 = system: SF-295
OVCAR-5 = system: OVCAR-5
786-0 = system: 786-0
K562 = system: K562
HL-60 = system: HL-60
SN12C = system: SN12C
NCI-H23 = system: NCI-H23
HCT-116 = system: HCT-116
Malme-3M = system: Malme-3M
RXF 393 = system: RXF 393
RXF 631 = system: RXF 631
LOX IMVI = system: LOX IMVI
UO-31 = system: UO-31
M19-MEL = system: M19-MEL
SNB-75 = system: SNB-75
HT-29 = system: HT-29
SNB-19 = system: SNB-19
SF-268 = system: SF-268
UACC-62 = system: UACC-62
OVCAR-3 = system: OVCAR-3
DLD-1 = system: DLD-1
XF498 = system: XF498
HCC 2998 = system: HCC 2998
OVCAR-4 = system: OVCAR-4
DMS-273 = system: DMS-273
DMS-114 = system: DMS-114
HCT-15 = system: HCT-15
SK-OV-3 = system: SK-OV-3
UACC-257 = system: UACC-257
SK-MEL-28 = system: SK-MEL-28
SK-MEL-2 = system: SK-MEL-2

N#CC(C(=O)C(N)=O)c1ccccc1Cl (centres undefined)
GI50 (RPMI-8226): > 100 µM (inactive)
GI50 (KM-20L2): > 100 µM (inactive)
GI50 (SF-539): > 100 µM (inactive)
GI50 (CCRF-CEM): > 100 µM (inactive)
GI50 (CAKI-1): > 100 µM (inactive)
GI50 (LXFL 529): > 100 µM (inactive)
GI50 (M14): > 100 µM (inactive)
GI50 (ACHN): > 100 µM (inactive)
GI50 (EKVX): > 100 µM (inactive)
GI50 (MOLT-4): > 100 µM (inactive)
GI50 (A498): > 100 µM (inactive)
GI50 (HOP-18): > 100 µM (inactive)
GI50 (TK-10): > 100 µM (inactive)
GI50 (NCI-H460): > 100 µM (inactive)
GI50 (A549): > 100 µM (inactive)
GI50 (KM12): > 100 µM (inactive)
GI50 (IGROV-1): > 100 µM (inactive)
GI50 (OVCAR-8): > 100 µM (inactive)
GI50 (U-251): > 100 µM (inactive)
GI50 (SW-620): > 100 µM (inactive)
GI50 (NCI-H226): > 100 µM (inactive)
GI50 (COLO 205): > 100 µM (inactive)
GI50 (SK-MEL-5): > 100 µM (inactive)
GI50 (SF-295): > 100 µM (inactive)
GI50 (OVCAR-5): > 100 µM (inactive)
GI50 (786-0): > 100 µM (inactive)
GI50 (K562): > 100 µM (inactive)
GI50 (HL-60): > 100 µM (inactive)
GI50 (SN12C): > 100 µM (inactive)
GI50 (NCI-H23): > 100 µM (inactive)
GI50 (HCT-116): > 100 µM (inactive)
GI50 (Malme-3M): > 100 µM (inactive)
GI50 (RXF 393): > 100 µM (inactive)
GI50 (RXF 631): > 100 µM (inactive)
GI50 (LOX IMVI): > 100 µM (inactive)
GI50 (UO-31): > 100 µM (inactive)
GI50 (M19-MEL): > 100 µM (inactive)
GI50 (SNB-75): > 100 µM (inactive)
GI50 (HT-29): > 100 µM (inactive)
GI50 (SNB-19): > 100 µM (inactive)
GI50 (SF-268): > 100 µM (inactive)
GI50 (UACC-62): > 100 µM (inactive)
GI50 (OVCAR-3): > 100 µM (inactive)
GI50 (DLD-1): > 100 µM (inactive)
GI50 (XF498): > 100 µM (inactive)
GI50 (HCC 2998): > 100 µM (inactive)
GI50 (OVCAR-4): > 100 µM (inactive)
GI50 (DMS-273): > 100 µM (inactive)
GI50 (DMS-114): > 100 µM (inactive)
GI50 (HCT-15): > 100 µM
GI50 (SK-OV-3): > 100 µM (inactive)
GI50 (UACC-257): > 100 µM (inactive)
GI50 (SK-MEL-28): > 100 µM (inactive)
GI50 (SK-MEL-2): > 100 µM (inactive)
